Results published in patent publication US4062948A, “Dihydromocimycin antibiotics” (Gist-Brocades N.V., priority 1970, dated 1977).
≈ marks a conversion by molar mass, not a printed value. Entries after “also recorded” stand apart in the source; their conditions may differ.

How the values were obtained:
[1] = system: Diplococcus pneumoniae A 188; test: micro liquid serial dilution test (Table II); format: cell-based; conditions: Streptococcus pneumoniae, A188; 18 hours at 30° C or 37° C; read-out: Minimum inhibitory concentration
Method: (§1) The microbiological activity of the antibiotic preparation towards a number of micoorganisms has been determined by a micro liquid serial dilution test:
(§2) A stock solution of the test compounds at a concentration of 200 μg/ml in 0.05 molar phosphate buffer at a pH of 6.5 was prepared and serial 1:1 dilutions were made with a liquid medium inoculated with the test organism, using conventional glass spot-test plates. The plates were incubated 18 hours at 30° C or 37° C. The minimum inhibitory concentration (MIC) which is the smallest concentration of compound completely inhibiting the growth of the test organism is read and calculated in μg/ml.

[2] = system: Saccharomyces cerevisiae D 160; test: micro liquid serial dilution test (Table II); format: cell-based; conditions: D160, 18 hours at 30° C or 37° C, read-out: Minimum inhibitory concentration
Method: as §1, §2

[3] = system: Torulopsis glabrata A 420; test: micro liquid serial dilution test (Table II); format: cell-based; conditions: Nakaseomyces glabratus, A420; 18 hours at 30° C or 37° C; read-out: Minimum inhibitory concentration
Method: as §1, §2

[4] = system: Mycoplasma gallisepticum K 514; test: micro liquid serial dilution test (Table II); format: cell-based
Method: as §1, §2

[5] = system: Proteus mirabilis L 93; test: micro liquid serial dilution test (Table II); format: cell-based; conditions: L93, 18 hours at 30° C or 37° C, read-out: Minimum inhibitory concentration
Method: as §1, §2

[6] = system: Actinobacillus equuli T 3; test: micro liquid serial dilution test (Table II); format: cell-based; conditions: T3, 18 hours at 30° C or 37° C, read-out: Minimum inhibitory concentration
Method: as §1, §2

[7] = system: Streptococcus faecalis A 306; test: micro liquid serial dilution test (Table II); format: cell-based; conditions: Enterococcus faecalis, A306; 18 hours at 30° C or 37° C; read-out: Minimum inhibitory concentration
Method: as §1, §2

[8] = system: Lactobacillus acidophilus D 218; test: micro liquid serial dilution test (Table II); format: cell-based; conditions: D218, 18 hours at 30° C or 37° C, read-out: Minimum inhibitory concentration
Method: as §1, §2

[9] = system: chickens; test: three-month oral toxicity in chickens; format: in vivo; conditions: up to 0.1% in the diet, three months
From the text: The toxicity of the antibiotic has been studied in various animals.

[10] = system: Staphylococcus aureus A 355; test: micro liquid serial dilution test (Table II); format: cell-based; conditions: A355, 18 hours at 30° C or 37° C, penicillinase-producer, read-out: Minimum inhibitory concentration
Method: as §1, §2
(§3) wherein ') indicates penicillinase-producer; ") indicates recently isolated hospital strain.

[11] = system: Proteus morganii 2241; test: micro liquid serial dilution test (Table II); format: cell-based; conditions: Morganella morganii, 18 hours at 30° C or 37° C, recently isolated hospital strain, read-out: Minimum inhibitory concentration
Method: as §1, §2, §3

[12] = system: Pseudomonas aeruginosa 2396; test: micro liquid serial dilution test (Table II); format: cell-based; conditions: 18 hours at 30° C or 37° C, recently isolated hospital strain, read-out: Minimum inhibitory concentration
Method: as §1, §2, §3

[13] = system: Staphylococcus aureus L 160a; test: micro liquid serial dilution test (Table II); format: cell-based; conditions: 18 h, read-out: Minimum inhibitory concentration
Method: as §1, §2, §3

[14] = system: human-pathogenic microorganisms; test: in vitro activity against human-pathogenic microorganisms; format: cell-based; conditions: summary of Table II
Method: as §1, §2

[15] = growth promotion in slaughter chickens (Example II); format: in vivo; conditions: feed additive
From the text: Slaughter chickens are given mocimycin in the form of the sodium salt obtained in Example 1, in a mixture with component of the feed (wheat flour), the amount of antibiotic in the feed (based on the weight of the feed) being as specified in the following Table, which gives the weight of the chickens after 3, 5 and 7 weeks.

[16] = system: Brucella melitensis A 488; test: microbe, parasite or virus in culture; format: cell-based; conditions: A488, 18 h, read-out: Minimum inhibitory concentration
[17] = growth promotion in pigs (Example III); format: in vivo; conditions: pigs, summary of Table VII
Method: The sodium salt of mocimycin as obtained in Example I, was pre-mixed with wheat flour which mixture, added to the feed, was administered to pigs. The amount of the antibiotic present in the feed (based on the weight of the feed) is given hereinbelow in Table VII, in which the average relative weights of the pigs after 6 and 12 weeks, respectively are given.

[18] = Stability of the solid antibiotic; format: physicochemical; conditions: for stable (solid): 100% relative humidity
[19] = system: microorganism causing Treponema dysentery; test: pigs infected with Treponema dysentery (Example VI); format: in vivo
From the text: Twenty pigs, 3 months old, were infected with the microorganism causing Treponema dysentery by administering to them feed mixed with a homogenous mixture of contents of the intestines and intestinal mucous membranes of two animals suffereing from the disease. The infected pigs were divided into four groups of five animals each and the animals were fed with the feed as a slurry diluted 1:1 with water for 1 week. The total amount of feed per animal was 1.2 kg each day and was given in two portions.
After 5 days, the first symptoms of the disease were observed from the thin faeces and confirmed by a microbiological investigation of the faeces and […] a week, the animals were treated as follows:
group 2: 100 ppm of tylosin were added to the feed;
group 3: 25ppm of dihydromocimycin were added to the feed; and
group 4: 50 ppm of dihydromocimycin were added to the feed.
The antibiotic-enriched feed was administered for a week. After that week, feed without any antibiotic was given again. Recovery from the infection was observed from the weights of the animals and from inspection samples of the faeces, macroscopically from their consistencies, and microscopically by means of a specific immuno-fluoroescence technique. During the test, one animal of each of groups 1, 3 and 4 died.
The results are shown in the following Table wherein the weights indicated are the averages at that time of the still living animals. The consistency of the faeces is indicated as follows:
+ means thin liquid; ± means thick liquid; - means normal. The results of the immuno-fluorescence technique are indicated quantitatively by indicating the number of Treponemas in the visual field: 5 means very crowded; 4 means many; 3 means about 10 Treponemas; 2 means 1 or 2 Treponemas, 1 means more visual fields necessary to find one Treponema, and - means negative.

[20] = system: same microorganisms as mocimycin; test: in vitro antimicrobial activity, comparison of the two antibiotics; format: cell-based
[21] = dihydromocimycin 50 ppm, after 3 weeks, one symbol per animal

CC=CC=CC1OC(O)(C(CC)C(=O)NCC=CC=C(C)C(OC)C(C)C2OC(C=CC=CC=C(C)C(=O)c3c(O)cc[nH]c3=O)C(O)C2O)C(O)C(O)C1(C)C (stereo not drawn) [mocimycin]
MIC [1]: 1 µg/mL (≈ 1.25 µM)
MIC [2]: > 100 µg/mL
MIC [3]: > 100 µg/mL
MIC ([4]; Mycoplasmoides gallisepticum, K514, 18 hours at 30° C or 37° C, read-out: Minimum inhibitory concentration): 0.1 µg/mL (≈ 0.125 µM)
activity against Mycoplasma gallisepticum ([4]; in vitro, summary of Table II): high activity
MIC [5]: 100 µg/mL (≈ 125 µM)
MIC [6]: 1.5 µg/mL (≈ 1.88 µM)
MIC [7]: 1 µg/mL (≈ 1.25 µM)
MIC [8]: > 100 µg/mL
undesired pharmacological effect [9]: does not result in any undesired pharmacological effect
MIC [10]: 100 µg/mL (≈ 125 µM)
MIC [11]: 100 µg/mL (≈ 125 µM)
MIC [12]: > 100 µg/mL
MIC [13]: > 200 µg/mL
activity against a number of human-pathogenic microorganisms [14]: almost no activity
growth of the chickens [15]: an increase in growth
MIC [16]: 1 µg/mL (≈ 1.25 µM)
growth promoting effect [17]: growth promoting effect
no loss in activity of the solid ([18]; 25° C and 37° C, low relative humidities): at least 5 months
stable (solid) ([18]; 25° C): 3 months
stable (solid) ([18]; 37° C): 2 months

CC=CC=CC1OC(O)(C(CC)C(=O)NCC=CC=C(C)C(OC)C(C)C2OC(C=CC=CC=C(C)C(=O)C3=C(O)CCNC3=O)C(O)C2O)C(O)C(O)C1(C)C (stereo not drawn) [dihydromocimycin]
activity relative to tylosin ([19]; administered amounts taken into account): at least 4 times
Weights ([19]; dihydromocimycin 25 ppm group, after 1 week (start of antibiotics)): 21.3 kg
Weights ([19]; dihydromocimycin 25 ppm group, just before infection (baseline)): 24.2 kg
Weights ([19]; dihydromocimycin 25 ppm, after 2 weeks): 20.2 kg
Weights ([19]; dihydromocimycin 25 ppm, after 3 weeks): 24.0 kg
Weights ([19]; dihydromocimycin 50 ppm group, after 1 week (start of antibiotics)): 21.6 kg
Weights ([19]; dihydromocimycin 50 ppm group, just before infection (baseline)): 23.4 kg
Weights ([19]; dihydromocimycin 50 ppm, after 2 weeks): 21.2 kg
Weights ([19]; dihydromocimycin 50 ppm, after 3 weeks): 23.0 kg
Faeces consistency [19, 21]: -- +-
Immunofluorescence [19, 21]: -- -- -- --
speed of cure compared with tylosin ([19]; faeces consistency and immunofluorescence): cured markedly faster than the animals treated with tylosin
animals died during the test ([19]; group 3, dihydromocimycin 25 ppm): one
animals died during the test ([19]; group 4, dihydromocimycin 50 ppm): one
in vitro activity compared with mocimycin [20]: in many cases it shows even a better activity than mocimycin; also recorded: more active than mocimycin against many microorganisms
